ChEMBL document CHEMBL4354828, “Discovery of Taniborbactam (VNRX-5133): A Broad-Spectrum Serine- and Metallo-β-lactamase Inhibitor for Carbapenem-Resistant Bacterial Infections” (J Med Chem, 2020)
≈ marks a conversion by molar mass, not a printed value.

Experiments:
Assay type in all cases: functional
Pseudomonas aeruginosa [1] = test: Antibacterial activity against wild type Pseudomonas aeruginosa 27853 after 16 to 20 hrs by CLSI-based microbroth dilution method
Escherichia coli [2] = test: Antibacterial activity against wild type Escherichia coli ATCC 25922 after 16 to 20 hrs by CLSI-based microbroth dilution method
Staphylococcus aureus [3] = test: Antibacterial activity against methicillin resistant Staphylococcus aureus 33591 after 16 to 20 hrs by CLSI-based microbroth dilution method
Enterobacter cloacae = test: Antibacterial activity against Enterobacter cloacae 144200 expressing p99 AmpC after 16 to 20 hrs by CLSI-based microbroth dilution method
Klebsiella pneumoniae [4] = test: Antibacterial activity against wild type Klebsiella pneumoniae CI 09 after 16 to 20 hrs by CLSI-based microbroth dilution method
Staphylococcus aureus [5] = test: Antibacterial activity against wild type Staphylococcus aureus ATCC 29213 after 16 to 20 hrs by CLSI-based microbroth dilution method
Klebsiella aerogenes = test: Antibacterial activity against Enterobacter aerogenes 188548 expressing AmpC after 16 to 20 hrs by CLSI-based microbroth dilution method
Escherichia coli [6] = test: Antibacterial activity against Escherichia coli J53 expressing SHV5/ AmpC/TEM-1 after 16 to 20 hrs by CLSI-based microbroth dilution method
Pseudomonas aeruginosa [7] = test: Antibacterial activity against Pseudomonas aeruginosa Ps296 AmpC/VIM-2/TEM-1 after 16 to 20 hrs by CLSI-based microbroth dilution method
Klebsiella pneumoniae [8] = test: Antibacterial activity against Klebsiella pneumoniae UMM expressing SHV5/KPC-2/TEM-1 after 16 to 20 hrs by CLSI-based microbroth dilution method
Klebsiella pneumoniae [9] = test: Antibacterial activity against Klebsiella pneumoniae 11978 expressing OXA-48 after 16 to 20 hrs by CLSI-based microbroth dilution method
Klebsiella pneumoniae [10] = test: Antibacterial activity against Klebsiella pneumoniae A-1797 expressing KPC-2/VIM-4/CMY-4 after 16 to 20 hrs by CLSI-based microbroth dilution method

SMILES	MIC (Pseudomonas aeruginosa [1]) [µg/mL]	MIC (Escherichia coli [2]) [µg/mL]	MIC (Staphylococcus aureus [3]) [µg/mL]	MIC (Enterobacter cloacae) [µg/mL]	MIC (Klebsiella pneumoniae [4]) [µg/mL]	MIC (Staphylococcus aureus [5]) [µg/mL]	MIC (Klebsiella aerogenes) [µg/mL]	MIC (Escherichia coli [6]) [µg/mL]	MIC (Pseudomonas aeruginosa [7]) [µg/mL]	MIC (Klebsiella pneumoniae [8]) [µg/mL]	MIC (Klebsiella pneumoniae [9]) [µg/mL]	MIC (Klebsiella pneumoniae [10]) [µg/mL]
C[C@@H](O)[C@H]1C(=O)N2C(C(=O)O)=C(S[C@@H]3CN[C@H](C(=O)N(C)C)C3)[C@H](C)[C@H]12 [MEROPENEM]	1 (≈ 2.61 µM)	0.03 (≈ 0.0782 µM)	32 (≈ 83.4 µM)	0.25 (≈ 0.652 µM)	0.06 (≈ 0.156 µM)	0.06 (≈ 0.156 µM)	2 (≈ 5.22 µM)	0.06 (≈ 0.156 µM)	–	–	–	–
Cc1onc(-c2ccccc2)c1C(=O)N[C@@H]1C(=O)N2[C@@H]1SC(C)(C)[C@@H]2C(=O)O [OXACILLIN]	> 128	> 128	> 128	> 128	> 128	0.125 (≈ 0.311 µM)	> 128	> 128	> 128	> 128	> 128	> 128
